According to patent US10167284B2, “Spirocyclic compounds as agonists of the muscarinic M1 receptor and/or M4 receptor” (HEPTARES THERAPEUTICS LIMITED, priority 2015, dated 2019):

Experiments:
[1] = molecular target: T1, human muscarinic M4 receptor (Homo sapiens, UniProt P08173); experiment: Alphascreen Surefire phospho-ERK1/2 functional assay, M4; format: cell-based; conditions: for EC50 / M4 % Emax cf. ACh: CHO cells stably expressing human M4; for EC50: phospho-ERK1/2, read-out: pEC50 M4 (converted); for Emax: CHO, read-out: M4 % Emax cf. ACh, CHO cells stably expressing human M4; for Emax / M4 % Emax cf. ACh: Emax relative to ACh
T1 construct: expressed in transfected cells
T1 sequence (P08173 1-479): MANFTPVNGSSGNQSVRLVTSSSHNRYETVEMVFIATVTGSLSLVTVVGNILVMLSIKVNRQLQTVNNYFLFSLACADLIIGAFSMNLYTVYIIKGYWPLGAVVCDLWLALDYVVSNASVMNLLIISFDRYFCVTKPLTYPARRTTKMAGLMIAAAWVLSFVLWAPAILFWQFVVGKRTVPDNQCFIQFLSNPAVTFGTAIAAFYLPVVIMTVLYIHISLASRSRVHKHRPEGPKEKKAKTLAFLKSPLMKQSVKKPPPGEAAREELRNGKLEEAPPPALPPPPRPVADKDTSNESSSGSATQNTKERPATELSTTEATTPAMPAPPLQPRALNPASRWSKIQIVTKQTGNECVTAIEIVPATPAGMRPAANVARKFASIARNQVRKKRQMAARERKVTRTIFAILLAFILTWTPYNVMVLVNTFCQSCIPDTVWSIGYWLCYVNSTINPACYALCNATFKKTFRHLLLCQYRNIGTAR
Description: (§1) CHO cells stably expressing the human muscarinic M1, M2, M3 or M4 receptor were plated (25K/well) onto 96-well tissue culture plates in MEM-alpha+10% dialysed FBS. Once adhered, cells were serum-starved overnight. Agonist stimulation was performed by the addition of 5 μL agonist to the cells for 5 min (37° C.). Media was removed and 50 μL of lysis buffer added. After 15 min, a 4 μL sample was transferred to 384-well plate and 7 μL of detection mixture added. Plates were incubated for 2 h with gentle agitation in the dark and then read on a PHERAstar plate reader.
(§2) pEC50 and Emax figures were calculated from the resulting data for each receptor subtype.

[2] = molecular target: T2, human muscarinic M1 receptor (Homo sapiens, UniProt P11229); experiment: Alphascreen Surefire phospho-ERK1/2 functional assay, M1; format: cell-based; conditions: for EC50 / M1 % Emax cf. ACh: CHO cells stably expressing human M1; for EC50: phospho-ERK1/2, read-out: pEC50 M1 (converted); for Emax: CHO, read-out: M1 % Emax cf. ACh, CHO cells stably expressing human M1; for Emax / M1 % Emax cf. ACh: Emax relative to ACh
T2 construct: expressed in transfected cells
T2 sequence (P11229 1-460): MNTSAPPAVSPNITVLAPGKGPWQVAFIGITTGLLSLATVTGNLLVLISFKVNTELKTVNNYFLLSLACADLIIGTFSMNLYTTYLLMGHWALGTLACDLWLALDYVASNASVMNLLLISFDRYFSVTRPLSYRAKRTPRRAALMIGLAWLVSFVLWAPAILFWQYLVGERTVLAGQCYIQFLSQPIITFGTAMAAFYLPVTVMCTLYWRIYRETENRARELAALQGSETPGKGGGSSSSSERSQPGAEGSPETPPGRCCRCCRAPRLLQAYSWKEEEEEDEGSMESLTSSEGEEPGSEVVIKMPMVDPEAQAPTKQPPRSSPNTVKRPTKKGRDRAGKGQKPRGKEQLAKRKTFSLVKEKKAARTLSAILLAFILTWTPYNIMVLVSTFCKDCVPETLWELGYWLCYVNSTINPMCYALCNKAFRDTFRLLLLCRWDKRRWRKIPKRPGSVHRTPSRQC
Description: as §1, §2

CCOC(=O)N1CCC2(CC(N3CCC4(CC3)OC(=O)NC4Cc3ccccn3)C2)C1 (single isomer, unassigned) [4-19 Isomer 2 (racemic)]
EC50 [1]: 794 nM
Emax [1]: 72%
EC50 [2]: 200 nM
Emax [2]: 98%

CCOC(=O)N1CCC2(CC(N3CCC4(CC3)OC(=O)NC4(C)C)C2)C1 (single isomer, unassigned) [4-27 Isomer 1]
M4 % Emax cf. ACh [1]: (59) %
EC50 [1]: 251 nM
M1 % Emax cf. ACh [2]: (65) %
EC50 [2]: 10000 nM

CCOC(=O)N1CCC2(CC(N3CCC4(CC3)OC(=O)N(CC)C4CC)C2)C1 (single isomer, unassigned) [4-22 Isomer 2]
M4 % Emax cf. ACh [1]: (2) %
EC50 [1]: > 20000 nM
M1 % Emax cf. ACh [2]: (1) %
EC50 [2]: > 20000 nM

CCC1NC(=O)CC12CCN(C1CC3(CCN(C(=O)OC)C3)C1)CC2 (single isomer, unassigned) [3-4 Isomer 1]
M4 % Emax cf. ACh [1]: (30) %
EC50 [1]: 316 nM
M1 % Emax cf. ACh [2]: (35) %
EC50 [2]: 3160 nM

CCCN1C(=O)OC2(CCN(C3CC4(CCN(C(=O)OCC)C4)C3)CC2)C1CC (single isomer, unassigned) [4-23 Isomer 2]
M4 % Emax cf. ACh [1]: (3) %
EC50 [1]: > 20000 nM
M1 % Emax cf. ACh [2]: (5) %
EC50 [2]: > 20000 nM

CCOC(=O)N1CCC2(CC(N3CCC4(CC3)OC(=O)NC43CC(F)(F)C3)C2)C1 (single isomer, unassigned) [4-30 Isomer 1]
EC50 [1]: 158 nM
Emax [1]: 63%
EC50 [2]: 1260 nM
Emax [2]: 49%

CCOC(=O)N1CCC2(CC(N3CCC4(CC3)CC(=O)NN4Cc3ccccc3)C2)C1 (single isomer, unassigned) [6-6 Isomer 1]
M4 % Emax cf. ACh [1]: (10) %
EC50 [1]: > 20000 nM
M1 % Emax cf. ACh [2]: (36) %
EC50 [2]: 501 nM

CCOC(=O)N1CCC2(CC(N3CCC4(CC3)CN(C(C)C)C(=O)O4)C2)C1 (single isomer, unassigned) [4-8 Isomer 2]
EC50 [1]: 398 nM
Emax [1]: 58%
EC50 [2]: 1260 nM
Emax [2]: 63%

CCOC(=O)N1CC2(CC(N3CCC4(CC3)OC(=O)N3CCCC34)C2)C1 (centres unmarked) [Example 2-5, ethyl 6-(3′-oxotetrahydro-1H-spiro[piperidine-4,1′-pyrrolo[1,2-c][1,3]oxazol]-1-yl)-2-azaspiro[3.3]heptane-2-carboxylate]
EC50 [1]: 126 nM
Emax [1]: 34%
EC50 [2]: 1000 nM
Emax [2]: 28%

CCC1N(CC)C(=O)OC12CCN(C1CC3(CCN(C(=O)OC)C3)C1)CC2 (single isomer, unassigned) [4-21 Isomer 2 (racemic)]
EC50 [1]: 200 nM
Emax [1]: 36%
EC50 [2]: 794 nM
Emax [2]: 77%

CC(C)OC(=O)N1CCC2(CC(N3CCC4(CC3)CNC(=O)O4)C2)C1 (single isomer, unassigned) [4-4 Isomer 2]
EC50 [1]: 398 nM
Emax [1]: 24%
EC50 [2]: 631 nM
Emax [2]: 52%

CCOC(=O)N1CCC2(CC(N3CCC4(CC3)OC(=O)N(CC)C4CC)C2)C1 (single isomer, unassigned) [4-22 Isomer 1]
M4 % Emax cf. ACh [1]: (18) %
EC50 [1]: > 20000 nM
M1 % Emax cf. ACh [2]: (13) %
EC50 [2]: > 20000 nM

CCOC(=O)N1CC2(CC(N3CCC4(CC3)OC(=O)NC4(C)C)C2)C1 [Example 2-3, ethyl 6-(4,4-dimethyl-2-oxo-1-oxa-3,8-diazaspiro[4.5]decan-8-yl)-2-azaspiro[3.3]heptane-2-carboxylate]
EC50 [1]: 1000 nM
Emax [1]: 73%
EC50 [2]: 3160 nM
Emax [2]: 92%

CCOC(=O)N1CC2(CC(N3CCC4(CC3)CNC(=O)C4)C2)C1 [Example 1-1, ethyl 6-(3-oxo-2,8-diazaspiro[4.5]dec-8-yl)-2-azaspiro[3.3]heptane-2-carboxylate]
EC50 [1]: > 20000 nM
Emax [1]: 66%
EC50 [2]: 316 nM
Emax [2]: 107%

CCCN1C(=O)OC2(CCN(C3CC4(CCN(C(=O)OCC)C4)C3)CC2)C1(C)C (single isomer, unassigned) [4-37 Isomer 2]
M4 % Emax cf. ACh [1]: (13) %
EC50 [1]: > 20000 nM
M1 % Emax cf. ACh [2]: (29) %
EC50 [2]: 794 nM

CCCN1N(C)C(=O)CC12CCN(C1CC3(CCN(C(=O)OCC)C3)C1)CC2 (single isomer, unassigned) [6-10 Isomer 2]
EC50 [1]: 39.8 nM
Emax [1]: 109%
EC50 [2]: 1260 nM
Emax [2]: 90%

CCOC(=O)N1CCC2(CC(N3CCC4(CC3)OC(=O)N(C)C4CC)C2)C1 (single isomer, unassigned) [4-20 Isomer 2]
M4 % Emax cf. ACh [1]: (9) %
EC50 [1]: > 20000 nM
M1 % Emax cf. ACh [2]: (16) %
EC50 [2]: > 20000 nM

CCOC(=O)N1CCC2(CC(N3CCC4(CC3)CC(=O)NN4C(C)C)C2)C1 (single isomer, unassigned) [6-5 Isomer 2]
EC50 [1]: > 20000 nM
Emax [1]: 20%
EC50 [2]: 2000 nM
Emax [2]: 56%

CCC1NC(=O)CC12CCN(C1CC3(CCN(C(=O)OC)C3)C1)CC2 (single isomer, unassigned) [3-4 Isomer 2]
M4 % Emax cf. ACh [1]: (36) %
EC50 [1]: 200 nM
M1 % Emax cf. ACh [2]: (71) %
EC50 [2]: 2000 nM

CCOC(=O)N1CCC2(CC(N3CCC4(CC3)OC(=O)NC4CC)C2)C1 (single isomer, unassigned) [4-12 Isomer 2]
M4 % Emax cf. ACh [1]: (1) %
EC50 [1]: > 20000 nM
M1 % Emax cf. ACh [2]: (0) %
EC50 [2]: > 20000 nM

CCOC(=O)N1CCC2(CC(N3CCC4(CC3)OC(=O)N(CC)C4(C)C)C2)C1 (single isomer, unassigned) [4-35 Isomer 2]
EC50 [1]: 31.6 nM
Emax [1]: 108%
EC50 [2]: 1000 nM
Emax [2]: 57%

CCOC(=O)N1CCC2(CC(N3CCC4(CC3)OC(=O)N(CC3CC3)C4CC)C2)C1 (single isomer, unassigned) [4-25 Isomer 2 (racemic)]
EC50 [1]: 126 nM
Emax [1]: 69%
EC50 [2]: 794 nM
Emax [2]: 73%

COC(=O)N1CCC2(CC(N3CCC4(CC3)OC(=O)N3CCCC34)C2)C1 (single isomer, unassigned) [4-45 Isomer 2]
EC50 [1]: 316 nM
Emax [1]: 36%
EC50 [2]: 1000 nM
Emax [2]: 59%

CCOC(=O)N1CCC2(CC(N3CCC4(CC3)OC(=O)N(C)C4CC)C2)C1 (single isomer, unassigned) [4-20 Isomer 1]
M4 % Emax cf. ACh [1]: (42) %
EC50 [1]: 501 nM
M1 % Emax cf. ACh [2]: (57) %
EC50 [2]: 2000 nM

CCOC(=O)N1CCC2(CC(N3CCC4(CC3)OC(=O)N(CC#N)C4(C)C)C2)C1 (single isomer, unassigned) [4-42 Isomer 2]
EC50 [1]: 200 nM
Emax [1]: 52%
EC50 [2]: > 20000 nM
Emax [2]: 16%

CCOC(=O)N1CCC2(CC(N3CCC4(CC3)CNC(=O)O4)C2)C1 (single isomer, unassigned) [4-3 Isomer 1]
M4 % Emax cf. ACh [1]: (37) %
EC50 [1]: 316 nM
M1 % Emax cf. ACh [2]: (91) %
EC50 [2]: 251 nM

CCOC(=O)N1CCC2(CC(N3CCC4(CC3)OC(=O)NC4C3CCC3)C2)C1 (single isomer, unassigned) [4-15 Isomer 1 (racemic)]
EC50 [1]: 158 nM
Emax [1]: 87%
EC50 [2]: 501 nM
Emax [2]: 85%

CCCN1C(=O)OC2(CCN(C3CC4(CCN(C(=O)OCC)C4)C3)CC2)C1CC (single isomer, unassigned) [4-23 Isomer 1]
M4 % Emax cf. ACh [1]: (33) %
EC50 [1]: 501 nM
M1 % Emax cf. ACh [2]: (9) %
EC50 [2]: > 20000 nM

CCOC(=O)N1CCC2(CC(N3CCC4(CC3)CN(CC(C)C)C(=O)O4)C2)C1 (single isomer, unassigned) [4-9 Isomer 2]
EC50 [1]: 631 nM
Emax [1]: 76%
EC50 [2]: 1000 nM
Emax [2]: 104%
